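Cells were grown in 96-well plates and exposed to each compound for 48 hours at five concentrations; endpoints were interpolated linearly between bracketing concentrations, or set to the highest concentration if not reached. GI50 is the concentration that inhibits growth by half. At the TGI there is no net growth.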
How the values were obtained:
Experiment in all cases: growth of human tumour cells (NCI), 48 h
DMS 114 small cell lung = system: DMS 114 small cell lung
SW-620 colon = system: SW-620 colon
DLD-1 colon = system: DLD-1 colon
SN12C renal = system: SN12C renal
SF-268 CNS = system: SF-268 CNS
M19-MEL melanoma = system: M19-MEL melanoma
MOLT-4 leukemia = system: MOLT-4 leukemia
HCT-116 colon = system: HCT-116 colon
HOP-18 NSCLC = system: HOP-18 NSCLC
HCC-2998 colon = system: HCC-2998 colon
RXF 393 renal = system: RXF 393 renal
DU-145 prostate = system: DU-145 prostate

Structure (SMILES) | TGI (DMS 114 small cell lung) | TGI (SW-620 colon) | TGI (DLD-1 colon) | TGI (SN12C renal) | TGI (SF-268 CNS) | TGI (M19-MEL melanoma) | TGI (MOLT-4 leukemia) | TGI (HCT-116 colon) | TGI (HOP-18 NSCLC) | TGI (HCC-2998 colon) | TGI (RXF 393 renal) | TGI (DU-145 prostate) | GI50 (DU-145 prostate) | GI50 (SW-620 colon) | GI50 (SN12C renal) | GI50 (SF-268 CNS) | GI50 (MOLT-4 leukemia) | GI50 (RXF 393 renal) | GI50 (HCT-116 colon) | GI50 (HCC-2998 colon)
O=C1/C(=C\c2ccccc2)c2ccccc2N1/N=C\c1ccccc1 | > 100 µM | > 100 µM | > 100 µM | > 100 µM | > 100 µM | > 100 µM | > 100 µM | > 100 µM | > 100 µM | > 100 µM | – | – | – | – | – | – | – | – | – | –
Cc1ccc(Nc2nc(C)c(C(/C=C/c3ccc4c(c3)OCO4)=N/Nc3ccc([N+](=O)[O-])cc3[N+](=O)[O-])s2)c([N+](=O)[O-])c1 | > 100 µM | > 100 µM | > 100 µM | > 100 µM | > 100 µM | > 100 µM | > 100 µM | > 100 µM | 63.7 µM | > 100 µM | > 100 µM | – | – | – | – | – | – | – | – | –
Cc1cccc(N=C2NC(=O)C(CC(=O)Nc3ccccc3Cl)S2)c1 (stereo unspecified) | > 100 µM | > 100 µM | > 100 µM | > 100 µM | > 100 µM | > 100 µM | > 100 µM | > 100 µM | – | > 100 µM | > 100 µM | – | – | – | – | – | – | – | – | –
O=c1[nH]cnc2c1ncn2CCCCO | > 100 µM | > 100 µM | > 100 µM | > 100 µM | > 100 µM | > 100 µM | > 100 µM | > 100 µM | > 100 µM | > 100 µM | > 100 µM | – | – | – | – | – | – | – | – | –
CCCCCCCCCCCCCCCCCc1nnc(N)o1 | – | > 100 µM | > 100 µM | > 100 µM | > 100 µM | > 100 µM | > 100 µM | > 100 µM | – | > 100 µM | – | – | – | – | – | – | – | – | – | –
O=c1cc(-c2ccc(O)cc2)oc2cc(O)cc(O)c12 | > 100 µM | – | – | > 100 µM | 83.9 µM | > 100 µM | 88.4 µM | > 100 µM | – | 56.8 µM | – | – | – | – | – | – | – | – | – | –
O=c1[nH]c2c(c3ccccc13)CCc1ccccc1-2 | > 100 µM | > 100 µM | – | > 100 µM | > 100 µM | > 100 µM | > 100 µM | > 100 µM | – | > 100 µM | > 100 µM | – | – | – | – | – | – | – | – | –
O=C(CC(=O)c1ccccc1)C(=O)NC12CC3CC(CC(C3)C1)C2 | > 58.4 µM | > 58.7 µM | > 70 µM | > 100 µM | > 100 µM | > 100 µM | > 100 µM | > 100 µM | > 100 µM | > 100 µM | > 47.3 µM | – | – | – | – | – | – | – | – | –
NS(=O)(=O)c1ccc(NC(=O)c2cccc3c(Nc4ccc(S(N)(=O)=O)cc4)c4ccccc4nc23)cc1 | > 100 µM | > 100 µM | > 100 µM | > 100 µM | 65.3 µM | > 100 µM | 39.8 µM | > 100 µM | > 100 µM | – | > 100 µM | – | – | – | – | – | – | – | – | –
O=S(=O)(N/N=C/c1ccc(Cl)cc1Cl)c1ccccc1 | 89.9 µM | > 100 µM | > 100 µM | > 100 µM | > 100 µM | > 100 µM | > 100 µM | > 100 µM | > 100 µM | > 100 µM | > 100 µM | – | – | – | – | – | – | – | – | –
COc1cc2nncc(SCc3ccc(Cl)c(Cl)c3)c2cc1OC | > 100 µM | > 100 µM | – | > 100 µM | > 100 µM | > 100 µM | > 100 µM | > 100 µM | > 100 µM | > 100 µM | > 100 µM | > 100 µM | – | – | – | – | – | – | – | –
CC(=O)O[C@H]1CC[C@@]2(C)C(=C/C(=N\[N+](=O)[O-])[C@H]3C4CCC([C@H](C)CCCC(C)C)[C@@]4(C)CCC32)C1 (stereo partly specified) | > 100 µM | > 100 µM | > 100 µM | > 100 µM | > 100 µM | > 100 µM | > 100 µM | > 100 µM | – | – | > 100 µM | – | – | – | – | – | – | – | – | –
CCOC(=O)C1Oc2ccc([N+](=O)[O-])cc2C1(C)O (stereo unspecified) | > 100 µM | > 100 µM | > 100 µM | > 100 µM | > 100 µM | > 100 µM | > 100 µM | – | – | > 100 µM | > 100 µM | – | – | – | – | – | – | – | – | –
Nc1ccc(C2=Nc3ccccc3SC(c3ccccc3O)C2)cc1 (stereo unspecified) | 49.4 µM | > 100 µM | > 100 µM | > 100 µM | > 100 µM | > 100 µM | 58.5 µM | – | > 100 µM | > 100 µM | > 100 µM | – | – | – | – | – | – | – | – | –
[O-][n+]1c2cc(CN3CCOCC3)c(CN3CCOCC3)cc2[n+]([O-])c2c(O)cccc21 | – | 7.16 µM | 6.8 µM | 13 µM | 3.6 µM | 8.83 µM | 3.05 µM | 6.05 µM | 18.6 µM | – | 5.11 µM | – | – | – | – | – | – | – | – | –
O=C(O)c1cc(=O)c2cc(C(=O)c3cccs3)c(Cl)c(Cl)c2o1 | – | > 100 µM | > 100 µM | > 100 µM | > 100 µM | – | > 100 µM | – | – | > 100 µM | – | – | – | – | – | – | – | – | – | –
COC1(Cc2ccccc2)C(=O)c2ccccc2N1C(C)=O (stereo unspecified) | > 100 µM | > 100 µM | > 100 µM | > 100 µM | – | > 100 µM | > 100 µM | > 100 µM | > 100 µM | > 100 µM | > 100 µM | – | – | – | – | – | – | – | – | –
Nc1cc(-c2ccccc2)n(C(=O)Nc2ccc(Oc3ccccc3)cc2)n1 | – | > 100 µM | – | > 100 µM | > 100 µM | – | > 100 µM | > 100 µM | – | > 100 µM | 68.3 µM | > 100 µM | > 100 µM | > 100 µM | 80.3 µM | 30.8 µM | 50.5 µM | 23 µM | 53.5 µM | > 100 µM
O=C1NC(SCc2ccc(F)cc2)=N/C1=C/c1cccc(OCc2ccc(Cl)cc2)c1 | – | > 100 µM | – | > 100 µM | > 100 µM | – | > 100 µM | 14.9 µM | – | > 100 µM | 48.9 µM | > 100 µM | > 100 µM | 20 µM | 4.52 µM | > 100 µM | 31.6 µM | 9.22 µM | 3.27 µM | 51.1 µM
O=C(O)C1CC2CC(=O)C1C2 (stereo unspecified) | – | > 100 µM | > 100 µM | > 100 µM | > 100 µM | > 100 µM | > 100 µM | > 100 µM | > 100 µM | – | > 100 µM | – | – | – | – | – | – | – | – | –
O=C1OC(OC/C(Br)=C(/Br)COC2OC(=O)C(Cl)=C2Cl)C(Cl)=C1Cl (stereo unspecified) | – | 8.26 µM | – | 22.6 µM | 35.5 µM | – | 5.44 µM | 10 µM | – | 34.1 µM | 13.4 µM | 30.6 µM | – | – | – | – | – | – | – | –

From PubChem BioAssay (NCI)
